From ChEMBL document CHEMBL5291721, “A preclinical secondary pharmacology resource illuminates target-adverse drug reaction associations of marketed drugs” (Nat Commun, 2023)

Legend:
[1] = target: T1, Neuropeptide Y receptor type 1 (Homo sapiens, UniProt P25929)
T1 sequence (P25929 whole entry): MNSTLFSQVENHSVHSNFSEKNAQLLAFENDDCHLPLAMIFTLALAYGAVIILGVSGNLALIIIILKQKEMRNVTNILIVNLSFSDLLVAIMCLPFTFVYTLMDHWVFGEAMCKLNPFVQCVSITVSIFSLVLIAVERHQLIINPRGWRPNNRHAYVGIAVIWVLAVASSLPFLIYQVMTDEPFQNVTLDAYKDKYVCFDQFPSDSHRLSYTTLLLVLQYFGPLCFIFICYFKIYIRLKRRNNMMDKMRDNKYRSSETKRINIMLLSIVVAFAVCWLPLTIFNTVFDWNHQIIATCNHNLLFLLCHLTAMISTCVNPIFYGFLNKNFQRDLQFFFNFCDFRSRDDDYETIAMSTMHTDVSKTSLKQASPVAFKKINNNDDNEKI

Adenosine receptor A1 = target: T2, Adenosine receptor A1 (Homo sapiens, UniProt P30542)
T2 sequence (P30542 whole entry): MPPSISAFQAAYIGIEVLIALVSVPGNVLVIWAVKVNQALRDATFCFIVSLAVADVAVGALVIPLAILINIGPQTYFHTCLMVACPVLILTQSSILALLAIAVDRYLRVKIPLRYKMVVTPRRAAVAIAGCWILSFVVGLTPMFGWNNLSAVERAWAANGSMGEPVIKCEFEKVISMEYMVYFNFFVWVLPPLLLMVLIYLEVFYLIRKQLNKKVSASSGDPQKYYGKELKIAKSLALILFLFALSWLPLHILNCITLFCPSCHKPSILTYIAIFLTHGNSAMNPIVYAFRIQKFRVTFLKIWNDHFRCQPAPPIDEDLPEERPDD

[2] = target: Glutamate receptor ionotropic, NMDA 1 (Rattus norvegicus, UniProt P35439)
B2 bradykinin receptor = target: T3, B2 bradykinin receptor (Homo sapiens, UniProt P30411)
T3 sequence (P30411 whole entry): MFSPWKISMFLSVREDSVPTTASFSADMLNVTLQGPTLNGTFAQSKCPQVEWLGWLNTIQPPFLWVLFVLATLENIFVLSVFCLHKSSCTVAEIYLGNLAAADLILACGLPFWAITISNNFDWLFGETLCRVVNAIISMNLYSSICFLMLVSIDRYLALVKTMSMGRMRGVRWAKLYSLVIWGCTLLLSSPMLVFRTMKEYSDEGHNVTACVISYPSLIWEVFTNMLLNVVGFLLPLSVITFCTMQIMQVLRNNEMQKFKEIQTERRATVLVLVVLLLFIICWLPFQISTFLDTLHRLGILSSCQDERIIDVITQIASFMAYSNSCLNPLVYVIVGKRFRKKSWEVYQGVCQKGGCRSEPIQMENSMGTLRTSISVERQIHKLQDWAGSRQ

Melanocortin receptor 3 = Melanocortin receptor 3 (Homo sapiens, UniProt P41968)
[3] = target: T4, Alpha-2C adrenergic receptor (Homo sapiens, UniProt P18825); format: functional
T4 sequence (P18825 whole entry): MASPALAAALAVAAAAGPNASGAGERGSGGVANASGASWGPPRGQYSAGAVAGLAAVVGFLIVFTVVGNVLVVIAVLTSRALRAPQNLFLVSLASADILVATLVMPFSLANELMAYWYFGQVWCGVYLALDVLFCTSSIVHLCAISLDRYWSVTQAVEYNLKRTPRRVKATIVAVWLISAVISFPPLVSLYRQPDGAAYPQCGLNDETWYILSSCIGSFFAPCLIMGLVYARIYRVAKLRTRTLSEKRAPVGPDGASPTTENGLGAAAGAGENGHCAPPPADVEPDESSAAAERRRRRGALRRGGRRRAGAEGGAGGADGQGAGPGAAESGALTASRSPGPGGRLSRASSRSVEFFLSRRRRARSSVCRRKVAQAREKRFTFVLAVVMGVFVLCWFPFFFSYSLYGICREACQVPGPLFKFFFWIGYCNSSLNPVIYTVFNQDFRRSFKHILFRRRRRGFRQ

Vasopressin V2 receptor = Vasopressin V2 receptor (Homo sapiens, UniProt P30518)
[4] = target: 3',5'-cyclic-AMP phosphodiesterase 4D (Homo sapiens, UniProt Q08499); format: functional
[5] = target: T5, Prostaglandin G/H synthase 1 (Rattus norvegicus, UniProt Q63921); format: functional
T5 sequence (Q63921 whole entry): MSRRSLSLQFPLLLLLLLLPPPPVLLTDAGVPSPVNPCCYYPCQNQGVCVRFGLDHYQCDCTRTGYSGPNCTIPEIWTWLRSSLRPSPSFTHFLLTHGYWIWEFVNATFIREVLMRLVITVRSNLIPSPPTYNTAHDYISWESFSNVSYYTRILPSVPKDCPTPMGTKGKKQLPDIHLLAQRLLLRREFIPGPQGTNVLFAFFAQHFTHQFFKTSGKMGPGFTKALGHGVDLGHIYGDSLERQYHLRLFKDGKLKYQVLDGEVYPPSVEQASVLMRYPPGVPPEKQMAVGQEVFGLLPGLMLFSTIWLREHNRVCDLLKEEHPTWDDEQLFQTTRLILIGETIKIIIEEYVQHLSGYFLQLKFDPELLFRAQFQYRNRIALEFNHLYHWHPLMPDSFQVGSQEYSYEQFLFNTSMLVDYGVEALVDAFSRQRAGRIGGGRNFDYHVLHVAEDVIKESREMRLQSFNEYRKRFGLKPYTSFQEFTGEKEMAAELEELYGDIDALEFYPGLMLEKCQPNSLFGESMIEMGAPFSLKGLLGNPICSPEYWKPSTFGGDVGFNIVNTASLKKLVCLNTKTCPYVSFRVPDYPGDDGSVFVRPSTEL

Histamine H2 receptor = Histamine H2 receptor (Homo sapiens, UniProt P25021); format: functional, cell-based
[6] = target: 5-hydroxytryptamine receptor 2B (Homo sapiens, UniProt P41595); format: functional, cell-based
D(1A) dopamine receptor = D(1A) dopamine receptor (Homo sapiens, UniProt P21728); format: functional, cell-based
Further: assay procedure not described here.

Sequence of 3',5'-cyclic-AMP phosphodiesterase 4D (Q08499 whole entry): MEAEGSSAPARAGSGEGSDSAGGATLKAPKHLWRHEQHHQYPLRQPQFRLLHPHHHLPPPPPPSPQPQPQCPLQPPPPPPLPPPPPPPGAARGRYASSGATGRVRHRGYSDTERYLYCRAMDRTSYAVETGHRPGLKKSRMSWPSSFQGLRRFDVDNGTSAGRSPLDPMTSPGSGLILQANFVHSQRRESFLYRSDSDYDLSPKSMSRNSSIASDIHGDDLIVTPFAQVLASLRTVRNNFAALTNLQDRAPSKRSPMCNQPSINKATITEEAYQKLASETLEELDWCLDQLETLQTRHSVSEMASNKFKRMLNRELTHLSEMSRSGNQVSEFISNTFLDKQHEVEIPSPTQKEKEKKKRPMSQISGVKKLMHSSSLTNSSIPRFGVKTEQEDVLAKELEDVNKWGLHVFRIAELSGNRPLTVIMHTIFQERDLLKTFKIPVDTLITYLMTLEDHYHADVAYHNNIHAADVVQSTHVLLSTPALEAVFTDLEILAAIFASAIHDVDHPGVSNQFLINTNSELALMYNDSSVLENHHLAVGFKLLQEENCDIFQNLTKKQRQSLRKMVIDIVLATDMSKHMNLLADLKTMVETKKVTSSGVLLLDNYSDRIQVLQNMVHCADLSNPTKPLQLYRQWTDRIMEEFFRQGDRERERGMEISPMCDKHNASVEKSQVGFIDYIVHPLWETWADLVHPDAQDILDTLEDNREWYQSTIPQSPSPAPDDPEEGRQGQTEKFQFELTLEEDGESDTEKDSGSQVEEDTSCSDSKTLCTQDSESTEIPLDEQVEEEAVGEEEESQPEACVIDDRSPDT
Sequence of Melanocortin receptor 3 (P41968 whole entry): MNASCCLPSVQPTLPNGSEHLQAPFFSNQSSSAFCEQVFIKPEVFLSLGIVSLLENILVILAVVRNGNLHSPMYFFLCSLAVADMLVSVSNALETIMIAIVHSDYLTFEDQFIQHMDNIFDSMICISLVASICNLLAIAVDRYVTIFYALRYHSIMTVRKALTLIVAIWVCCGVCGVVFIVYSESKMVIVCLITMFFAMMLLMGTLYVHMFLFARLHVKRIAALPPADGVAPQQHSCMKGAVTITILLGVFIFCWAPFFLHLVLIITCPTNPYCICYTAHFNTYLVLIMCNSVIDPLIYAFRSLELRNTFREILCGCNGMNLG
Sequence of D(1A) dopamine receptor (P21728 whole entry): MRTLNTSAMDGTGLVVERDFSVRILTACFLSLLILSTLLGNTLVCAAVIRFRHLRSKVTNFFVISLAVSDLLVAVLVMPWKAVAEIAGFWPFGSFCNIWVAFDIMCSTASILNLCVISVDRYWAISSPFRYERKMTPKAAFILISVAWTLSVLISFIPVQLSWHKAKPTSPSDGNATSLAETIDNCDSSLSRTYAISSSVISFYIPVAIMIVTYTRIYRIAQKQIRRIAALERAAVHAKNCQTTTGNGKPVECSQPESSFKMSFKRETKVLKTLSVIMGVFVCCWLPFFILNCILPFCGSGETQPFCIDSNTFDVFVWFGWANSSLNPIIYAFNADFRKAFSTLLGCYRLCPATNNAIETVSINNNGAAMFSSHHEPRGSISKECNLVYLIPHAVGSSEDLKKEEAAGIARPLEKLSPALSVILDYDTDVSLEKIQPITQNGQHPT
Sequence of Histamine H2 receptor (P25021 whole entry): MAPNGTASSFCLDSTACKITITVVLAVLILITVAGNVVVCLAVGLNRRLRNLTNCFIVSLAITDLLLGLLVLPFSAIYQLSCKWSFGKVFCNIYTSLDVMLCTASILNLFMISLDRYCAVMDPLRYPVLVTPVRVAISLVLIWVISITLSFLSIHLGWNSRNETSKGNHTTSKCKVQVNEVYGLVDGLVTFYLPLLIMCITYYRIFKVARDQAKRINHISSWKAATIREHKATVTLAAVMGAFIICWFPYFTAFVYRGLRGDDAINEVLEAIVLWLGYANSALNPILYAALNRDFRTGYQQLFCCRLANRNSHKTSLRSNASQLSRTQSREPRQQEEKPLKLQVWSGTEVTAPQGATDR
Sequence of Vasopressin V2 receptor (P30518 whole entry): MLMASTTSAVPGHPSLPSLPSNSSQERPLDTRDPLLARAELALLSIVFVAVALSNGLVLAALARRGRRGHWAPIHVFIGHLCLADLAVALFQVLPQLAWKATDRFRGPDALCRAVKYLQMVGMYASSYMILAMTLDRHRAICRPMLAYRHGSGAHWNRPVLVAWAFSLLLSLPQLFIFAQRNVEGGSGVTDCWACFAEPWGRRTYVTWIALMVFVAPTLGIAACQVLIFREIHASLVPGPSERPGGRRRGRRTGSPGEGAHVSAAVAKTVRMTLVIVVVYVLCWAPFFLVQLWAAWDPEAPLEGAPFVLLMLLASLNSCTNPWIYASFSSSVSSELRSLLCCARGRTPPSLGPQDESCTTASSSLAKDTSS
Sequence of 5-hydroxytryptamine receptor 2B (P41595 whole entry): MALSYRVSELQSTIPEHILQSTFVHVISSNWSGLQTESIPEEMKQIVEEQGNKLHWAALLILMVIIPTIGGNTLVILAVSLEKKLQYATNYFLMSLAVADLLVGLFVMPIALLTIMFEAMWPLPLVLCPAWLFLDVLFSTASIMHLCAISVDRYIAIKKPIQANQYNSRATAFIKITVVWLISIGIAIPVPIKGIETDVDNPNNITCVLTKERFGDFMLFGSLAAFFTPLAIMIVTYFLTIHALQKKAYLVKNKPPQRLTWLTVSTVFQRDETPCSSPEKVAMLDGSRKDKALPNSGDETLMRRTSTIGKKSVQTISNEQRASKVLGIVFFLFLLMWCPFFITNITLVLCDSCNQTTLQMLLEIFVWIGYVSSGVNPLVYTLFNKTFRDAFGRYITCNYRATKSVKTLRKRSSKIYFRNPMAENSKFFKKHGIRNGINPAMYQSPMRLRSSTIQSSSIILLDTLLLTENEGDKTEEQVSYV

Structure (SMILES) | AC50 [1] | AC50 (Adenosine receptor A1) | AC50 [2] | AC50 (B2 bradykinin receptor) | AC50 (Melanocortin receptor 3) | AC50 [3] | AC50 (Vasopressin V2 receptor) | AC50 [4] | AC50 [5] | AC50 (Histamine H2 receptor) | AC50 [6] | AC50 (D(1A) dopamine receptor)
C[C@]1(COc2ccc(N3CCC(Oc4ccc(OC(F)(F)F)cc4)CC3)cc2)Cn2cc([N+](=O)[O-])nc2O1 | > 30 µM | > 30 µM | > 10 µM | > 30 µM | > 30 µM | > 10 µM | > 30 µM | > 30 µM | > 30 µM |  |  | 
C[C@]12CC[C@H](O)CC1=CC[C@@H]1[C@@H]2CC[C@]2(C)C(c3cccnc3)=CC[C@@H]12 [ABIRATERONE] | > 30 µM | > 30 µM | > 10 µM | > 30 µM | > 30 µM | > 10 µM | > 30 µM | > 30 µM | > 30 µM | > 10 µM | > 10 µM | > 10 µM
CC(=O)OCC[N+](C)(C)C [ACETYLCHOLINE] | > 30 µM | > 30 µM | > 10 µM | > 30 µM | > 30 µM | > 10 µM | > 30 µM | > 30 µM | > 30 µM | > 10 µM | > 10 µM | > 10 µM
O=C(Nc1nc(-c2cc(Cl)cs2)c(N2CCN(C3CCCCC3)CC2)s1)c1cnc(N2CCC(C(=O)O)CC2)c(Cl)c1 [AVATROMBOPAG] | > 10 µM | > 10 µM | > 10 µM |  | > 10 µM | > 10 µM |  | > 10 µM |  |  |  | 
CN(C)C(=O)Oc1cc(OC(=O)N(C)C)cc(C(O)CNC(C)(C)C)c1 (configuration not stated) [BAMBUTEROL] | > 30 µM | > 30 µM |  | > 30 µM | > 30 µM |  | > 30 µM |  | > 30 µM |  |  | 
C[C@H]1C[C@H]2[C@@H]3CCC4=CC(=O)C=C[C@]4(C)[C@@]3(Cl)[C@@H](O)C[C@]2(C)[C@@]1(O)C(=O)CO [BECLOMETHASONE] | > 30 µM | > 30 µM | > 10 µM | > 30 µM | > 30 µM | > 10 µM | > 30 µM | > 30 µM | > 30 µM |  |  | 
CO[C@@]1(NC(=O)CSCC#N)C(=O)N2C(C(=O)O)=C(CSc3nnnn3C)CS[C@@H]21 [CEFMETAZOLE] |  |  | > 30 µM |  |  | > 30 µM |  | > 30 µM |  | > 30 µM | > 30 µM | > 30 µM
CO/N=C(\C(=O)N[C@@H]1C(=O)N2C(C(=O)[O-])=C(C[n+]3cccc4c3CCC4)CS[C@H]12)c1csc(N)n1 [CEFPIROME] |  |  | > 30 µM |  |  | > 30 µM |  | > 30 µM |  | > 30 µM | > 30 µM | > 30 µM
NS(=O)(=O)c1cc(C2(O)NC(=O)c3ccccc32)ccc1Cl (configuration not stated) [CHLORTHALIDONE] | > 10 µM | > 10 µM | > 10 µM | > 10 µM | > 10 µM | > 10 µM | > 10 µM | > 30 µM | > 10 µM | > 10 µM | > 10 µM | > 10 µM
CC[C@H]1OC(=O)[C@H](C)[C@@H](O[C@H]2C[C@@](C)(OC)[C@@H](O)[C@H](C)O2)[C@H](C)[C@@H](O[C@@H]2O[C@H](C)C[C@H](N(C)C)[C@H]2O)[C@](C)(OC)C[C@@H](C)C(=O)[C@H](C)[C@@H](O)[C@]1(C)O [CLARITHROMYCIN] | > 30 µM | > 30 µM |  | > 30 µM | > 30 µM | > 30 µM | > 30 µM | > 30 µM | > 30 µM | > 30 µM | > 30 µM | > 30 µM
Oc1c(I)cc(Cl)c2cccnc12 [CLIOQUINOL] |  |  | 13 µM |  |  | > 30 µM |  |  |  | > 30 µM | > 30 µM | > 30 µM
C[C@@H]1CCC[C@H](C)N1NC(=O)c1ccc(Cl)c(S(N)(=O)=O)c1 [CLOPAMIDE] | > 30 µM | > 30 µM | > 30 µM | > 30 µM | > 30 µM | > 30 µM | > 30 µM | > 30 µM | > 30 µM | > 30 µM | > 30 µM | > 30 µM
COc1ccc2c(c1)[C@]13CCCC[C@@H]1[C@H](C2)N(C)CC3 [DEXTROMETHORPHAN] | > 30 µM | > 30 µM |  | > 30 µM | > 30 µM | 11 µM | > 30 µM | > 30 µM | > 30 µM | > 10 µM | > 10 µM | > 10 µM
O=c1oc2ccccc2c(O)c1Cc1c(O)c2ccccc2oc1=O [DICUMAROL] | > 10 µM | > 10 µM | > 10 µM | > 10 µM | > 10 µM | > 10 µM | > 10 µM | 6.3 µM | > 30 µM | > 10 µM | > 10 µM | > 10 µM
O=C(O)CSCC(=O)NC1CCSC1=O (configuration not stated) [ERDOSTEINE] | > 30 µM | > 30 µM | > 30 µM | > 30 µM | > 30 µM | > 30 µM | > 30 µM | > 30 µM | > 30 µM | > 30 µM | > 30 µM | > 30 µM
CNCCCC1c2ccccc2C=Cc2ccccc21 [PROTRIPTYLINE] | > 10 µM | > 10 µM | > 10 µM | > 10 µM | > 10 µM |  | > 10 µM | > 30 µM | > 10 µM | > 10 µM | 3.8 µM | > 10 µM
O=C(CCCN1CCC2(CC1)C(=O)NCN2c1ccccc1)c1ccc(F)cc1 [SPIPERONE] | > 30 µM | > 30 µM | > 30 µM | > 30 µM | > 30 µM | 0.369 µM | > 30 µM | > 30 µM | > 30 µM | > 30 µM |  | 
